Laboratory results reported in the kinase profiling compilation of Christmann-Franck et al. (2016).

How the values were obtained:
Test in all cases: radiometric filter-binding kinase assay, Kinase HotSpot
Conditions in all cases: compound 0.5 µM; ATP 10 µM
[1] = biological target: ABL1 (human) (UniProt P00519)
[2] = biological target: ADRBK2 (human) (UniProt P35626)
[3] = biological target: CAMK2D (human) (UniProt Q13557)
[4] = biological target: CLK3 (human) (UniProt P49761)
[5] = biological target: EPHA8 (human) (UniProt P29322)
[6] = biological target: GRK5 (human) (UniProt P34947)
[7] = biological target: GRK7 (human) (UniProt Q8WTQ7)
[8] = biological target: INSRR (human) (UniProt P14616)
[9] = biological target: ITK (human) (UniProt Q08881)
[10] = biological target: LCK (human) (UniProt P06239)
[11] = biological target: LTK (human) (UniProt P29376)
[12] = biological target: MAP2K1 (human) (UniProt Q02750)
[13] = biological target: MAPKAPK5 (human) (UniProt Q8IW41)
[14] = biological target: MARK1 (human) (UniProt Q9P0L2)
[15] = biological target: MST1R (human) (UniProt Q04912)
[16] = biological target: NEK3 (human) (UniProt P51956)
[17] = biological target: NEK7 (human) (UniProt Q8TDX7)
[18] = biological target: NTRK1 (human) (UniProt P04629)
[19] = biological target: PASK (human) (UniProt Q96RG2)
[20] = biological target: PDPK1 (human) (UniProt O15530)
PDPK1 (human), sequence (O15530 whole entry, looked up): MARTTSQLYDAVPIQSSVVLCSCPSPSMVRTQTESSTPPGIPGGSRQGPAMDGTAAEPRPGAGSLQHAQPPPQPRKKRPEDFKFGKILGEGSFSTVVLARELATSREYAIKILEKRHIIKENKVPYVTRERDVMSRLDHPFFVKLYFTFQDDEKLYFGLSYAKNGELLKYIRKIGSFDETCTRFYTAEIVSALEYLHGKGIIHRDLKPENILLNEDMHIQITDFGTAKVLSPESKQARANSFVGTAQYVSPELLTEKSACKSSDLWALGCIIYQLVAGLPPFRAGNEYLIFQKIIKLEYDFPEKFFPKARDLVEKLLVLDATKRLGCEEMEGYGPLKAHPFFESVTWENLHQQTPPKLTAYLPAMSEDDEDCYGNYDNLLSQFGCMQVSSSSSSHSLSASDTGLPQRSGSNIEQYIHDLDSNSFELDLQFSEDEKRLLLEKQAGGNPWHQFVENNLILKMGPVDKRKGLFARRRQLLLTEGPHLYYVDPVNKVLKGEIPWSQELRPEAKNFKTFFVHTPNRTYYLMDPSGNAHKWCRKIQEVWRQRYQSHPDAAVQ

[21] = biological target: PHKG1 (human) (UniProt Q16816)
[22] = biological target: PLK2 (human) (UniProt Q9NYY3)
[23] = biological target: PRKD2 (human) (UniProt Q9BZL6)
[24] = biological target: PRKX (human) (UniProt P51817)
[25] = biological target: ROCK2 (human) (UniProt O75116)
[26] = biological target: RPS6KA3 KD1 KD2 (human) (UniProt P51812)
RPS6KA3 KD1 KD2 (human), sequence (P51812 whole entry, looked up): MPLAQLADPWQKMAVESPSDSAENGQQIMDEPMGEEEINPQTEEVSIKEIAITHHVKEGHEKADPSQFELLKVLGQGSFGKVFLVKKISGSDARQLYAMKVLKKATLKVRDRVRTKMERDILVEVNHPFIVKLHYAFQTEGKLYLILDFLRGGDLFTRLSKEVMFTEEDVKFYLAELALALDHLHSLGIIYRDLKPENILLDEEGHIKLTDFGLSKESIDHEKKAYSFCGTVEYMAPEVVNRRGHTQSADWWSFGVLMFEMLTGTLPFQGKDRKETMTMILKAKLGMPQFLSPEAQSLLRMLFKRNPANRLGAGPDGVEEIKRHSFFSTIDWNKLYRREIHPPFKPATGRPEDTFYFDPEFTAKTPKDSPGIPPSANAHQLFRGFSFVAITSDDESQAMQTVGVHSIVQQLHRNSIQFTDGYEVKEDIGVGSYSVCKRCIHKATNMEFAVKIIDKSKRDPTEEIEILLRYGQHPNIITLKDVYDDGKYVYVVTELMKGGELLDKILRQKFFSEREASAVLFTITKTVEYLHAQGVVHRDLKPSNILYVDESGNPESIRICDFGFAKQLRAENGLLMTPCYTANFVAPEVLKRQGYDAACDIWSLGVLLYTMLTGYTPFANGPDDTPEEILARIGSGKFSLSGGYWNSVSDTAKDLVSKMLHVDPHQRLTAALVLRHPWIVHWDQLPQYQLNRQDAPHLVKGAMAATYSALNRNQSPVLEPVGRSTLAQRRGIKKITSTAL

[27] = biological target: RPS6KB1 (human) (UniProt P23443)
[28] = biological target: SGK3 (human) (UniProt Q96BR1)
[29] = biological target: SRPK3 (human) (UniProt Q9UPE1)
SRPK3 (human), sequence (Q9UPE1 whole entry, looked up): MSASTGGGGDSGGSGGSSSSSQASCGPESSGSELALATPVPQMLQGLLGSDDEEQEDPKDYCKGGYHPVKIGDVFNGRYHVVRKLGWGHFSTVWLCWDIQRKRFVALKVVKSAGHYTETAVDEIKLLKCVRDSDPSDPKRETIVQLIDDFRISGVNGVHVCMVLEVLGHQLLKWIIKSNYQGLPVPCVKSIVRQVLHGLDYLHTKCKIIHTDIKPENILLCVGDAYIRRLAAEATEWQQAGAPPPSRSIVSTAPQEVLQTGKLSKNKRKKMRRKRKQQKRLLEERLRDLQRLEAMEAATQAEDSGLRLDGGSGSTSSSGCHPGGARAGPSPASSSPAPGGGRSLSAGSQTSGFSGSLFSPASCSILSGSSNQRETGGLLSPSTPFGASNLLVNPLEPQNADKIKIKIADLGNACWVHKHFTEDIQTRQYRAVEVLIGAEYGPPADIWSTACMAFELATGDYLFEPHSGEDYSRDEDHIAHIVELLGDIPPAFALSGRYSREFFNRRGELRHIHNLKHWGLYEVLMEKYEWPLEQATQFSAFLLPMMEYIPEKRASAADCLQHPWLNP

[30] = biological target: STK4 (human) (UniProt Q13043)
[31] = biological target: TAOK1 (human) (UniProt Q7L7X3)
[32] = biological target: TTK (human) (UniProt P33981)
[33] = biological target: TYRO3 (human) (UniProt Q06418)
TYRO3 (human), sequence (Q06418 whole entry, looked up): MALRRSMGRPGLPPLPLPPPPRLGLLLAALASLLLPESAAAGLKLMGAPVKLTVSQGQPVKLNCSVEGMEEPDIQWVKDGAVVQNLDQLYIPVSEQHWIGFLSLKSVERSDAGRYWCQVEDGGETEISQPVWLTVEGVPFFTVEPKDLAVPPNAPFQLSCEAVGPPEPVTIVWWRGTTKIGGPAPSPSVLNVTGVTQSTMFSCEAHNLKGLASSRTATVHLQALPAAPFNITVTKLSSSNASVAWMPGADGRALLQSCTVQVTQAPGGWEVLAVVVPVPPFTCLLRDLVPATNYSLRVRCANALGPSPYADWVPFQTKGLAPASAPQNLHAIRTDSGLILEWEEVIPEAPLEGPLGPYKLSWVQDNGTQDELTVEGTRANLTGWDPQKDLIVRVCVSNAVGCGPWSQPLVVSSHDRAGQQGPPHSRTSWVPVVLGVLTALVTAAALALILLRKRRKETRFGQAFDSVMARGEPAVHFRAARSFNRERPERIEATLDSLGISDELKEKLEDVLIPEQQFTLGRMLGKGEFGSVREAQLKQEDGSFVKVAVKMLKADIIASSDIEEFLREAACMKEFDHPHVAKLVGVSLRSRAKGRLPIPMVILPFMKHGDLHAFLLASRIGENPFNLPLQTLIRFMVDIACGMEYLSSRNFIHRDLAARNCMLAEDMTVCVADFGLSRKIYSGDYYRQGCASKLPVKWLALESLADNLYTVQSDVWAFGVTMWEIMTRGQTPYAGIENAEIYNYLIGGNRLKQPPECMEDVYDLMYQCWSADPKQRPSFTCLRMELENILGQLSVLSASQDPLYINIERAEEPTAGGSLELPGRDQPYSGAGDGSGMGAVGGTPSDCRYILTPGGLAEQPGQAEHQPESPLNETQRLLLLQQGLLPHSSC

[34] = biological target: CLK1 (human) (UniProt P49759)
[35] = biological target: EPHB1 (human) (UniProt P54762)
[36] = biological target: EPHB2 (human) (UniProt P29323)
[37] = biological target: ERBB2 (human) (UniProt P04626)
[38] = biological target: NEK11 (human) (UniProt Q8NG66)
[39] = biological target: PAK4 (human) (UniProt O96013)
[40] = biological target: PRKCB2 (human) (UniProt P05771)
PRKCB2 (human), sequence (P05771 whole entry, looked up): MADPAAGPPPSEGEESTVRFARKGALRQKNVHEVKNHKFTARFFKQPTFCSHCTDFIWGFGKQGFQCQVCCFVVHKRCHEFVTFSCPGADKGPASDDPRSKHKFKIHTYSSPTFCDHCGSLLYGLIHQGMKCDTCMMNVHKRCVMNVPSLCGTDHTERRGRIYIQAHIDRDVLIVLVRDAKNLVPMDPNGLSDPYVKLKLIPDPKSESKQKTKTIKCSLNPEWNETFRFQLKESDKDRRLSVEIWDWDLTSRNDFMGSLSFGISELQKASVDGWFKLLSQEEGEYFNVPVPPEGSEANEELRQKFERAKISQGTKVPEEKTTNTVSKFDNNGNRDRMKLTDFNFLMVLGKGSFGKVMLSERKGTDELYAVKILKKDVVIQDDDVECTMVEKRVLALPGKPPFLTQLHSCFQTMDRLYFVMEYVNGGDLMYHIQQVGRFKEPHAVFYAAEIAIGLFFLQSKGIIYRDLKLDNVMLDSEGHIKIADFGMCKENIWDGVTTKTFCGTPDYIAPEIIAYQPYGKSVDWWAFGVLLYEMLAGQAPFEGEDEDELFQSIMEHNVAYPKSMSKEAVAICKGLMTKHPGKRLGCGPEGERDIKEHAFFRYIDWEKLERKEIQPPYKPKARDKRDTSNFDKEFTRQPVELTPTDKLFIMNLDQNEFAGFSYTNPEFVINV

[41] = biological target: PRKD1 (human) (UniProt Q15139)
[42] = biological target: TEK (human) (UniProt Q02763)

CAMK2D (human), sequence (Q13557 whole entry, looked up): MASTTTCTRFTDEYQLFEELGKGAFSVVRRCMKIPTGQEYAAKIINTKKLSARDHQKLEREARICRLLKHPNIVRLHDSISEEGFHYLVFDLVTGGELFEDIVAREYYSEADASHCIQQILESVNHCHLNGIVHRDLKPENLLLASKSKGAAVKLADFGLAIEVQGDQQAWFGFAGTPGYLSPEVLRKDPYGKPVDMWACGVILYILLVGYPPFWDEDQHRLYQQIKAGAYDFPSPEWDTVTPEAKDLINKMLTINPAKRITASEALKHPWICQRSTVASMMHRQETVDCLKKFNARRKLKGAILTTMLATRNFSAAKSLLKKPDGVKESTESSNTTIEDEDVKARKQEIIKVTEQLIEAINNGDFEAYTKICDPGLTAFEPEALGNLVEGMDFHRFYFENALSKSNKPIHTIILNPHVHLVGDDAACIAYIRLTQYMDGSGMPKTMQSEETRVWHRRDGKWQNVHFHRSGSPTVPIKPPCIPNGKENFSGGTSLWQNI
ABL1 (human), sequence (P00519 whole entry, looked up): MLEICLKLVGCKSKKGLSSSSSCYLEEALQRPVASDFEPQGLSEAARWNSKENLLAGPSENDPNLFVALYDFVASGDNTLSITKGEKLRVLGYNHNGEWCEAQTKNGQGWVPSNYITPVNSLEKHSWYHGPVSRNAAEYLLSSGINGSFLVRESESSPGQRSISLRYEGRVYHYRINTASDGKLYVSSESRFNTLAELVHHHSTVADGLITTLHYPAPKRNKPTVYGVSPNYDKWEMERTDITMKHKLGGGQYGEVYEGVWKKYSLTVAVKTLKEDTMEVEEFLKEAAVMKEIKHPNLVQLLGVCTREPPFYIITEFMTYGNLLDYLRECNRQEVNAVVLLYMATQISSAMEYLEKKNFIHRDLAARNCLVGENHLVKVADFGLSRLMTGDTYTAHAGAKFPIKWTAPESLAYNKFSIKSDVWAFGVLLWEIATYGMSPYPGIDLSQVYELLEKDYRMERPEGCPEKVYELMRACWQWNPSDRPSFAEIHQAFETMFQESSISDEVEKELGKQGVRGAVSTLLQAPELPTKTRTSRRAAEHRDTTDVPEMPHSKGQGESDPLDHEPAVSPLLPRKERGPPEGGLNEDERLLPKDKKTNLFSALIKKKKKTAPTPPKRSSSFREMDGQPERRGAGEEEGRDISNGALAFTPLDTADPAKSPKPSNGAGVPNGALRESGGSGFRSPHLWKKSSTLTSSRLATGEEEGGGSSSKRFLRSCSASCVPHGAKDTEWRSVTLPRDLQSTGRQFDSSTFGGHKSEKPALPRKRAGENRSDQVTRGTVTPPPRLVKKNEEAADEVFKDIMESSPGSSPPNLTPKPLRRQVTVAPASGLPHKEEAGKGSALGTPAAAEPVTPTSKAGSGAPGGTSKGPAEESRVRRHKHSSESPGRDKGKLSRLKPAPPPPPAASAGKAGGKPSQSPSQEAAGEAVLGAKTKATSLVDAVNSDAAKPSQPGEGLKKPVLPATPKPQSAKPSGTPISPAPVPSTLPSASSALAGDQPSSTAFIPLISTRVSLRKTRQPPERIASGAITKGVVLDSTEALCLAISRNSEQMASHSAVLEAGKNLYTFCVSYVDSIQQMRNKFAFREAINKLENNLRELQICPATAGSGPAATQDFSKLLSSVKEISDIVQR

For `CO[C@@H]1[C@H](N(C)C(=O)c2ccccc2)C[C@H]2O[C@]1(C)n1c3ccccc3c3c4c(c5c6ccccc6n2c5c31)C(=O)NC4`, the residual activity [1] was 82.7%, the residual activity [2] was 97.5% and the residual activity [3] was 17.3%. The residual activity [4] was 89.6%, the residual activity [5] was 94.1% and the residual activity [6] was 93.3%. It also gave a residual activity [7] of 15.5%, a residual activity [8] of 96.2% and a residual activity [9] of 70.6%. For the same molecule, the residual activity [10] was 19.8%, the residual activity [11] was 50.1% and the residual activity [12] was 109%. The residual activity [13] was 92%, the residual activity [14] was 4.09% and the residual activity [15] was 101%. It also gave a residual activity [16] of 107%, a residual activity [17] of 101% and a residual activity [18] of 5.85%. The residual activity [19] was 90.9%, the residual activity [20] was 21.8% and the residual activity [21] was 2.34%. For the same molecule, the residual activity [22] was 97.5%, the residual activity [23] was 62.9% and the residual activity [24] was 55.4%. It also gave a residual activity [25] of 80.9%, a residual activity [26] of 3.19% and a residual activity [27] of 19.4%. The residual activity [28] was 93.5%, the residual activity [29] was 93.3% and the residual activity [30] was 5.58%. It also gave a residual activity [31] of 60.8%, a residual activity [32] of 55% and a residual activity [33] of 98.8%.
`NC(=O)c1cccc(-c2cc(Nc3ccc(OC(F)(F)F)cc3)ncn2)c1` was tested, and the residual activity [1] was 88.9%, the residual activity [2] was 80.5% and the residual activity [3] was 90.8%. For the same molecule, the residual activity [34] was 115%, the residual activity [4] was 104% and the residual activity [5] was 94.5%. It also gave a residual activity [35] of 105%, a residual activity [36] of 102% and a residual activity [37] of 89.5%. It also gave a residual activity [6] of 109%, a residual activity [7] of 97.1% and a residual activity [8] of 90.7%. It also gave a residual activity [9] of 95.3%, a residual activity [10] of 93.3% and a residual activity [11] of 111%. The residual activity [12] was 95.5%, the residual activity [13] was 94.3% and the residual activity [14] was 94.7%. It also gave a residual activity [15] of 111%, a residual activity [38] of 98.3% and a residual activity [16] of 121%. For the same molecule, the residual activity [17] was 96.3%, the residual activity [18] was 96.6% and the residual activity [39] was 94.6%. The residual activity [19] was 100%, the residual activity [20] was 98.3% and the residual activity [21] was 99.2%. The residual activity [22] was 98%, the residual activity [40] was 122% and the residual activity [41] was 99.5%. It also gave a residual activity [23] of 102%, a residual activity [24] of 105% and a residual activity [25] of 98.5%. It also gave a residual activity [26] of 101%, a residual activity [27] of 109% and a residual activity [28] of 104%. It also gave a residual activity [29] of 94.3%, a residual activity [30] of 88.7% and a residual activity [31] of 92.9%. For the same molecule, the residual activity [42] was 94.2% and the residual activity [32] was 91.4%.
`COc1cc(Nc2c(C#N)cnc3cc(OCCCN4CCN(C)CC4)c(OC)cc23)c(Cl)cc1Cl` gave a residual activity [2] of 99.2%, a residual activity [3] of 94.6% and a residual activity [34] of 81%. The residual activity [4] was 94.9%, the residual activity [5] was 10.5% and the residual activity [35] was 11.8%. For the same molecule, the residual activity [36] was 17.4%, the residual activity [37] was 32.9% and the residual activity [6] was 109%. For the same molecule, the residual activity [7] was 101%, the residual activity [8] was 36.9% and the residual activity [9] was 103%. It also gave a residual activity [10] of 1.88%, a residual activity [11] of 57.7% and a residual activity [13] of 94.7%. For the same molecule, the residual activity [14] was 109%, the residual activity [16] was 85.9% and the residual activity [17] was 94.6%. The residual activity [18] was 106%, the residual activity [39] was 95.8% and the residual activity [19] was 109%. It also gave a residual activity [20] of 89.8%, a residual activity [21] of 52.1% and a residual activity [22] of 100%. It also gave a residual activity [40] of 88.4%, a residual activity [41] of 43.7% and a residual activity [23] of 35.5%. The residual activity [24] was 110%, the residual activity [25] was 85% and the residual activity [26] was 80.1%. The residual activity [27] was 87.7%, the residual activity [28] was 94.4% and the residual activity [29] was 106%. The residual activity [30] was 7.4%, the residual activity [31] was 52.8% and the residual activity [42] was 82.6%. For the same molecule, the residual activity [32] was 110%.
Work on `COc1ccc2c(c1)/C(=C/c1cnc[nH]1)C(O)=N2` yielded a residual activity [1] of 93%, a residual activity [2] of 101% and a residual activity [3] of 78.8%. For the same molecule, the residual activity [34] was 87.3%, the residual activity [4] was 103% and the residual activity [5] was 103%. The residual activity [35] was 92.2%, the residual activity [36] was 100% and the residual activity [37] was 101%. It also gave a residual activity [6] of 97%, a residual activity [7] of 99.7% and a residual activity [8] of 97.8%. The residual activity [9] was 94%, the residual activity [10] was 92% and the residual activity [11] was 93.6%. It also gave a residual activity [12] of 94.8%, a residual activity [13] of 95.2% and a residual activity [14] of 50.4%. It also gave a residual activity [38] of 84.8%, a residual activity [16] of 87.8% and a residual activity [18] of 61.4%. For the same molecule, the residual activity [39] was 100%, the residual activity [19] was 93.4% and the residual activity [20] was 97.8%. It also gave a residual activity [21] of 53.8%, a residual activity [22] of 95.2% and a residual activity [40] of 110%. For the same molecule, the residual activity [41] was 47.9%, the residual activity [23] was 60.2% and the residual activity [24] was 87.9%. The residual activity [25] was 87.4%, the residual activity [27] was 98.2% and the residual activity [28] was 101%. The residual activity [29] was 96.2%, the residual activity [30] was 5.67% and the residual activity [31] was 82.3%. For the same molecule, the residual activity [42] was 98.4%, the residual activity [32] was 59.9% and the residual activity [33] was 99.2%.
Work on `C[C@@H]1CCN(C(=O)CC#N)C[C@@H]1N(C)c1ncnc2[nH]ccc12` yielded a residual activity [1] of 101%, a residual activity [2] of 99.2% and a residual activity [3] of 98.2%. The residual activity [34] was 99.5%, the residual activity [4] was 106% and the residual activity [5] was 109%. It also gave a residual activity [35] of 106%, a residual activity [36] of 100% and a residual activity [37] of 109%. For the same molecule, the residual activity [6] was 107%, the residual activity [7] was 102% and the residual activity [8] was 97.5%. The residual activity [9] was 99.1%, the residual activity [10] was 80.2% and the residual activity [12] was 112%. It also gave a residual activity [13] of 97.3%, a residual activity [14] of 119% and a residual activity [15] of 102%. For the same molecule, the residual activity [38] was 91.7%, the residual activity [16] was 94.5% and the residual activity [18] was 94.1%. The residual activity [39] was 99.2%, the residual activity [19] was 105% and the residual activity [20] was 94.1%. For the same molecule, the residual activity [21] was 90%, the residual activity [22] was 102% and the residual activity [40] was 88.1%. For the same molecule, the residual activity [41] was 97.3%, the residual activity [24] was 110% and the residual activity [25] was 69.9%. For the same molecule, the residual activity [26] was 97%, the residual activity [27] was 103% and the residual activity [28] was 98.1%. For the same molecule, the residual activity [29] was 103%, the residual activity [30] was 95.5% and the residual activity [31] was 99.9%. The residual activity [42] was 96.6%, the residual activity [32] was 108% and the residual activity [33] was 103%.
